Legend:
[1] = system: Cyp1A1 expression in U87 glioma cells; parameters: method as in PMID 21976023; settings: read-out: EC50 to drive Cyp1A1 expression; cited from earlier work
[2] = system: Cyp1a1 (mRNA, through AHR); assay: Cyp1a1 mRNA induction in TH17cond CD4+ T cells (qPCR); type: cell-based, mouse; settings: mouse, day 3 TH17-conditioned primary CD4+ T cells, D3 TH17cond CD4+ T cells, 2 h; read-out: EC50 to drive Cyp1A1 mRNA expression
Procedure: To activate primary T cells, spleens and/or lymph nodes (LN) were removed, disaggregated and red blood cells lysed. Cells were stimulated with 1 μg/ml of the CD3 monoclonal antibody (2C11) and 2 μg/ml anti-CD28 (37.51; ebiosciences) to trigger the TCR. Naive CD4^+ T cells and 24 h TCR-activated CD4^+ T cells were purified using CD4 isolation kit (EasySep, STEMCELL Technologies). […] Proleukin, Novartis) for a further 3–5 days. To generate TH1s and TH17s, murine CD8^+ T cells were depleted from lymph node preparations using CD8 depletion kit (EasySep, STEMCELL Technologies). […] RnD Systems) and IL-2 (20 ng/ml) and for TH17s; cytokines IL-6 (50 ng/ml, Peprotech), IL-1β (10 ng/ml, Peprotech) and TGFβ (2 ng/ml, Peprotech). TH17s were cultured in IMDM (Gibco). All other cells were cultured in RPMI 1640 containing L-glutamine (Gibco). Culture media was supplemented with 10% FBS (Gibco), 50 μM β-mercaptoethanol (β-ME, Sigma) and penicillin/streptomycin (Gibco). Cells were incubated at 37 °C with 5% CO2 throughout. […] RNA was purified using the RNeasy RNA purification Mini Kit (Qiagen) (Genomic DNA was digested with RNase-free DNase (Qiagen) following manufacturer instructions) and reverse-transcribed using the iScript cDNA synthesis kit (BioRad). Quantitative PCR was performed in 96-well plate format using iQ SYBR Green-based detection (BioRad) on a BioRad iCycler.

[3] = system: AHR; parameters: method as in PMID 29279331; settings: COS-1 cells; read-out: EC50 for AHR activation; cited from earlier work
[4] = system: mTORC1; assay: mTORC1 activity in CTLs after leucine removal and refeeding; type: cell-based, mouse; settings: CTLs removed from leucine, refed leucine 100uM ± Kyn 100uM
Text: page 13: • We […] would not be able to measure the levels of in vivo ky nurenine uptake with this assay (for the reasons explained above). However, this is a pertinent question, and will relate to the total amount of available kynurenine compared to alternative System L substrates. The detailed micro-environmental metabolomics techniques required to perform this kind of analysis is beyond the scope of this paper, however we have tried to address this point in the discussion. Second, did CD4 T cells (Foxp3-) and Tregs (Foxp3+) from Lm-infected mice also i mport Ky n? […] This, also, is a very interesting aspect, however we feel that it is beyond the scope of this paper. Point 4: Data presented in Figures 4 & 5 show convincingly that SLC7A5 ablation in CD4 T cells abolishes Kyn uptake in CD4 T cells selectively and that imported Kyn triggers AhR signaling in CD4 T cells, respectively. However, no data is presented to address the biological significance of these findings, specifically regarding the reported ability of Kyn to suppress Th1 responses (e.g. IFNg production) or to reinforce Treg-mediated suppression of effector T cells via AhR signaling. […]

[5] = molecular target: T1, System L transporter (Mus musculus, UniProt Q9Z127); assay: Radiolabelled 3H-tryptophan uptake in TH1 cells and CTLs; type: cell-based; settings: BCH 5 mM
T1 construct: Radiolabelled tracer uptake in IL-2 maintained TH1 cells (top panels) and IL-2 maintained CTLs (bottom panels); endogenous in cells; host or cells: IL-2 maintained mouse TH1 cells and CTLs
Procedure: (§1) Briefly, radiolabelled uptake was carried out using 1 × 10^6 cells resuspended in 0.4 ml uptake medium. Kynurenine uptake was carried out in warmed (37 °C) HBSS (GIBCO) containing [^3H] L-kynurenine (0.1 μCi/ml). 4 min uptake assays were carried out layered over 0.5 ml of 1:1 silicone oil (Dow Corning 550 (BDH silicone products; specific density, 1.07 g/ml):dibutyl phthalate (Fluka)). Cells were pelleted below the oil, the aqueous supernatant solution, followed by the silicon oil/dibutyl phthalate mixture was aspirated, and the cell pellet underneath resuspended in 200 μl NaOH (0.5 M) and β-radioactivity measured by liquid scintillation counting in a Beckman LS 6500 Multi-Purpose Scintillation Counter (Beckman Coulter). Similarly, glutamine uptake was performed using [^3H] L-glutamine (0.5 μCi/ml); tryptophan uptake was performed using [^3H] L-tryptophan (0.5 μCi/ml). Where indicated, 5 mM BCH, Kynurenine, L-glutamine or L-tryptophan were used, respectively, to quench radiolabeled ligand uptake. Where indicated, the sodium free buffer was prepared using TMACl as described in Baird et al.[35] Data are expressed as molecules radiotracer per cell per minute. [^3H] L-kynurenine, [^3H] L-tryptophan and [^3H] L-glutamine were obtained from Perkin Elmer. All other chemicals were obtained from Sigma.

[6] = system: D3 TH17cond CD4+ T cells; assay: FICZ uptake by flow cytometry (530 nm emission); type: cell-based, mouse; settings: FICZ 300 nM, 4 min, BCH 10 mM
Text: Error bars are ±s.d. Individual points indicate biological replicates. MFIs are indicated in the histograms, data are from three biological replicates (a–g, i–j) and six (Kyn) or three biological replicates (FICZ) (h).
As a control, we used the AHR ligand 6-formylindolo[3,2-b]carbazole (FICZ), a tryptophan-derived photoproduct. The intrinsic fluorescence of FICZ has previously been used to monitor cellular accumulation of FICZ by flow cytometry using BP filter for 530/30 nm emission with 488 nm laser excitation[27]. […] Further evidence for the importance of System L transport for kynurenine action came from experiments using BCH treatment to inhibit System L transport.

[7] = molecular target: T2, System L transporter SLC7A5 (Mus musculus, UniProt Q9Z127); assay: Flow cytometry kynurenine uptake assay (450 nm fluorescence) in T cells; type: cell-based; settings: D3 TH17cond CD4+ T cells, kynurenine 100 μM, 4 min, BCH 10 mM
T2 construct: endogenous in cells

[8] = system: activated T cells; assay: Radiolabelled 3H-glutamine uptake in activated T cells; type: cell-based, mouse; settings: IL-2 maintained TH1 cells and CTLs, BCH 5 mM
Procedure: as §1

T2 sequence (Q9Z127 whole entry): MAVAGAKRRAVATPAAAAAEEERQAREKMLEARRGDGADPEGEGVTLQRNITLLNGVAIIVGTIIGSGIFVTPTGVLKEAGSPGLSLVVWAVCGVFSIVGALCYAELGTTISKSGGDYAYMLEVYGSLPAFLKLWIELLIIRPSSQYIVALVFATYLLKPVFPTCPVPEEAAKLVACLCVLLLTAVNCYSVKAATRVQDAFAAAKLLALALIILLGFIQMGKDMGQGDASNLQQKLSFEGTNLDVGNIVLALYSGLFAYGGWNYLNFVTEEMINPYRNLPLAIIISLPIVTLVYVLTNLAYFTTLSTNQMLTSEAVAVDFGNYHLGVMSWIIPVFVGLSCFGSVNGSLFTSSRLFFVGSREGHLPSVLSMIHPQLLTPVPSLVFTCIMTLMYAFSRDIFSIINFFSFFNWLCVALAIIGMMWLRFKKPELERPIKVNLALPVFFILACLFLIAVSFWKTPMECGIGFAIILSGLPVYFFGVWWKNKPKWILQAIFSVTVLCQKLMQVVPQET
T2 sequence (P10852 whole entry partner): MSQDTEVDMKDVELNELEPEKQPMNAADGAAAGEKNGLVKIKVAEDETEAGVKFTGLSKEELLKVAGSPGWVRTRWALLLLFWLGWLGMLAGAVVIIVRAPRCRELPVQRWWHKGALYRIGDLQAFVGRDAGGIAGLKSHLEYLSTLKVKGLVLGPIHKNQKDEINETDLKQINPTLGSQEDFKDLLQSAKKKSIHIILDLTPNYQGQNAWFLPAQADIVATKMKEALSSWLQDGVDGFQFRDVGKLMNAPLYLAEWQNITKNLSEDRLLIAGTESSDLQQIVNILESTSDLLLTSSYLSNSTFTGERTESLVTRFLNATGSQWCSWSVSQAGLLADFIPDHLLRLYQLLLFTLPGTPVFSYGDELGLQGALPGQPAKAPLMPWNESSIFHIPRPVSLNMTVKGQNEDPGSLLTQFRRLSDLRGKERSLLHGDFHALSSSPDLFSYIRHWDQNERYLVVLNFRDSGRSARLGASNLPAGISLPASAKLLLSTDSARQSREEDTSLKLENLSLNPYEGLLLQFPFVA
T1 sequence (Q9Z127 whole entry): as the sequence (Q9Z127 whole entry) above
T1 sequence (P10852 whole entry partner): as the sequence (P10852 whole entry partner) above

EC50 at 2 h [2] | SMILES | EC50 [1] | EC50 [3] | effect on mTORC1 activity [4] | effect on 3H-tryptophan transport [5] | effect on FICZ uptake [6] | effect on kynurenine uptake [7] | effect on radiolabelled glutamine uptake [8]
11 µM | Nc1ccccc1C(=O)CC(N)C(=O)O (centres unmarked) [kynurenine] | 12.3 µM | 13 µM | impair restoration of mTORC1 activity |  |  |  | 
 | NC1(C(=O)O)CC2CCC1C2 (centres unmarked) [BCH, 2-amino-2-norbornanecarboxylic acid] |  |  |  | inhibited | not affected | inhibited | failure to block
